{"source": "patent US20240269238A1", "about": "“Therapeutic Regimens and Methods for Reducing Body Weight in a Subject with Fatty Liver Disease using a GLP-1R and GCGR Agonist” (Spitfire Pharma LLC, priority 2022, published 2024)", "assay_type_in_all_cases": "in vivo, human", "key": {"liver fat content": {"test_system": "liver fat content", "experiment": "Phase 1 12-week NAFLD study (Example 1): liver fat content by MRI-PDFF", "conditions": "for absolute reduction in liver fat (MRI-PDFF): week 12, NAFLD; for relative reduction in liver fat (MRI-PDFF) / proportion of patients with at least 30% reduction in liver fat content / proportion of patients with at least 50% reduction in liver fat content / proportion of patients with normalization in liver fat content (equal or below 5%): week 12", "source_text": "Provided herein is disclosure of a Phase 1, multicenter, randomized, double-blind, placebo-controlled study to assess the effects of Pemvidutide (also termed herein as ALT-801), the safety of Pemvidutide and effects on hepatic fat fraction, anthropometric parameters, lipid metabolism, inflammatory markers and fibrosis markers in diabetic and non-diabetic (type 2 diabetes) overweight and obese (BMI 28.0 kg/m^2) subjects with NAFLD. This study was designed to assess changes in hepatic fat fraction by MRI-PDFF (magnetic resonance imaging-proton density fat fraction) in diabetic and non-diabetic overweight and obese subjects with NAFLD after 12 weeks of ALT-801 treatment. The trial was conducted without adjunctive diet and exercise interventions. The study assessed changes in body weight, lipid metabolism, metabolic markers, and inflammatory markers and safety and tolerability of ALT-801 after 12 weeks of treatment. Subjects were stratified for the presence or absence of diabetes at baseline. Fibroscan and cT1 assessments evaluated changes in liver inflammatory and fibrotic activity at the end of 12 weeks of treatment.\nOverweight and obese volunteers with BMI ≥28 kg/m^2 were studied because this is the typical population of individuals with NAFLD, and these subjects are able to better tolerate the predicted Pharmacodynamics (PD) effect of weight loss and could even benefit from treatment. A hepatic fat fraction of 10% has been typical for the evaluation of hepatic fat fraction in subjects with NAFLD. In other words, individuals with a liver fat fraction of 10% or greater are typically diagnosed with NAFLD. Diabetic subjects that require insulin, sulfonylureas or DDP-4 inhibitors for control of diabetes were excluded in this study. Exclusions were instituted that might otherwise affect an accurate assessment of the effects of ALT-801 on safety or PD. The BMI upper limit is set to 45 kg/m^2 as subjects over this BMI are no likely to fit into the MRI scanner.\nThe study, described in this example, was carried out in 94 subjects overweight and obese (body mass index [BMI] ≥28.0 kg/m^2) Type 2 diabetic and non-diabetic subjects with nonalcoholic fatty liver disease (NAFLD) over about 4.5 months, including up to a 35-day screening period, and 85-day treatment period and a 25-day follow-up period, with treatment with ALT-801 (a composition comprising SEQ ID NO.: 1, “study medication”) or placebo administered by subcutaneous (SC) injection once weekly for up to twelve (12) doses.\nThe safety objective of this study was to assess the safety and tolerability of ALT-801 in 18-65 years old subjects with NAFLD (NAFLD without significant fibrosis, defined as FibroScan® controlled attenuation parameter (CAP) ≥280 dB/m and liver stiffness measurement (LSM)<10 kPa (i.e., indicating the absence of significant fibrosis), magnetic resonance imaging derived proton density fat fraction (MRI-PDFF) ≥10%), hemoglobin Alc (HbAlc) of less than 9.5%, and alanine aminotransferase (ALT) or aspartate aminotransferase (AST) values of ≤[…]. The pharmacodynamic (PD) objectives of this study were to evaluate the effects of ALT-801 on hepatic fat fraction, anthropometric parameters, lipid metabolism, metabolic markers, inflammatory markers, fibrosis markers, and lipotoxicity markers. The pharmacokinetic (PK) objectives of this study were to evaluate the effects of ALT-801 and metformin exposure (drug interactions) on the subjects (e.g., ALT-801 and metformin concentrations in blood over time).\nAfter providing informed consent, subjects underwent a screening period of up to 35 days. Subjects were instructed on how to maintain their normal diets, alcohol consumption and physical activities and not to start any new diets, supplements, or exercise programs at any time while participating in the study. […]"}, "[1]": {"test_system": "alanine aminotransferase (ALT) and corrected T1 (cT1)", "experiment": "Phase 1b 24-week NAFLD study (Example 3): liver inflammation by ALT levels and cT1 imaging", "conditions": "all doses, week 24", "source_text": "Provided herein is disclosure of a 12-week extension study of the study provided in Example 1, providing a 24-week a Phase 1b, randomized, double-blind, placebo-controlled study to assess the effects of pemvidutide (also termed herein as ALT-801), the safety of pemvidutide and effects on weight loss, hepatic fat fraction, anthropometric parameters, lipid metabolism, as well as inflammatory, fibrosis and other markers in diabetic and non-diabetic (type 2 diabetes) overweight and obese (BMI≥28.0 kg/m^2) subjects with NAFLD (defined as liver fat content (LFC) by MRI-PDFF ≥10%; absence of significant fibrosis, defined as FibroScan® LSM ≤10 kPa), alanine aminotransferase (ALT) and aspartate aminotransferase (AST) laboratory values of ≤75 IU/L and HbA1c <9.5. Men and women aged 18-65 years were studied. […]\nThe primary endpoint of this study was a reduction in liver fat content (LFC) by MRI-PDFF at Week 24 compared to Week 0 (zero). […] Adverse events (AEs), including serious and severe AEs, AEs leading to discontinuation, GI tolerability, vital signs, and glycemic control including fasting glucose and HbA1c levels were also measured. […]"}, "[2]": {"experiment": "Phase 1b 24-week NAFLD study (Example 3): safety", "conditions": "for serious and severe AE observed: unrelated to study medication", "source_text": "Provided herein is disclosure of a 12-week extension study of the study provided in Example 1, providing a 24-week a Phase 1b, randomized, double-blind, placebo-controlled study to assess the effects of pemvidutide (also termed herein as ALT-801), the safety of pemvidutide and effects on weight loss, hepatic fat fraction, anthropometric parameters, lipid metabolism, as well as inflammatory, fibrosis and other markers in diabetic and non-diabetic (type 2 diabetes) overweight and obese (BMI≥28.0 kg/m^2) subjects with NAFLD (defined as liver fat content (LFC) by MRI-PDFF ≥10%; absence of significant fibrosis, defined as FibroScan® LSM ≤10 kPa), alanine aminotransferase (ALT) and aspartate aminotransferase (AST) laboratory values of ≤75 IU/L and HbA1c <9.5. Men and women aged 18-65 years were studied. Diabetic subjects were defined as those that have undergone stable dose (≥3 months) metformin or SLGT-2 therapy and no use of insulin, sulfonylureas, DPP-4, GLP-1 treatment; Ninety-four (94) subjects were enrolled in the initial 12-week Phase 1b NAFLD trial and 83 subjects who completed were invited to receive a total of 12 additional weeks of blinded treatment. Of those subjects, 66 consented to rollover, of which 64 were eligible to participate.\nThe primary endpoint of this study was a reduction in liver fat content (LFC) by MRI-PDFF at Week 24 compared to Week 0 (zero). Key secondary endpoints include percent (%) weight loss at Week 24 compared to Week 0 (zero), and liver inflammation by alanine aminotransferase (ALT) levels and corrected T1 (cT1) imaging at Week 24 as compared to Week 0 (zero). Adverse events (AEs), including serious and severe AEs, AEs leading to discontinuation, GI tolerability, vital signs, and glycemic control including fasting glucose and HbA1c levels were also measured."}}, "data": [{"smiles": "CC[C@H](C)[C@H](NC(=O)[C@H](Cc1ccccc1)NC(=O)[C@H](CCC(=O)O)NC(=O)[C@@H]1CCCCNC(=O)CC[C@H](NC(=O)[C@H](CC(=O)O)NC(=O)[C@H](CC(C)C)NC(=O)[C@H](Cc2ccc(O)cc2)NC(=O)[C@H](CCCCN)NC(=O)[C@H](CO)NC(=O)[C@H](Cc2ccc(O)cc2)NC(=O)[C@H](CC(=O)O)NC(=O)[C@H](CO)NC(=O)[C@@H](NC(=O)[C@H](Cc2ccccc2)NC(=O)[C@@H](NC(=O)CNC(=O)[C@H](CCC(N)=O)NC(=O)C(C)(C)NC(=O)[C@@H](N)Cc2c[nH]cn2)[C@@H](C)O)[C@H](C)O)C(=O)N[C@@H](CCCCNC(=O)C2O[C@@H](OCCCCCCCCCCCCCCCCCC(=O)O)C(O)C(O)[C@@H]2O)C(=O)N[C@@H](C)C(=O)N[C@@H](C)C(=O)N1)C(=O)N[C@@H](CCC(N)=O)C(=O)N[C@@H](Cc1c[nH]c2ccccc12)C(=O)N[C@@H](CC(C)C)C(=O)N[C@@H](CC(C)C)C(=O)N[C@@H](CCC(N)=O)C(=O)N[C@H](C(N)=O)[C@@H](C)O", "note": "(stereo partly shown) [ALT-801, Pemvidutide]", "values": [{"measurement": "absolute reduction in liver fat (MRI-PDFF)", "setting": "liver fat content; 1.2 mg SC once weekly", "value": 8.9, "unit": "%"}, {"measurement": "relative reduction in liver fat (MRI-PDFF)", "setting": "liver fat content; 1.2 mg once weekly", "value": 46.6, "unit": "%"}, {"measurement": "proportion of patients with at least 30% reduction in liver fat content", "setting": "liver fat content; 1.2 mg", "value": "65 % of patients"}, {"measurement": "proportion of patients with at least 50% reduction in liver fat content", "setting": "liver fat content; 1.2 mg", "value": "about 40 % of patients"}, {"measurement": "proportion of patients with normalization in liver fat content (equal or below 5%)", "setting": "liver fat content; 1.2 mg", "value": "20 % of patients"}, {"measurement": "absolute reduction in liver fat (MRI-PDFF)", "setting": "liver fat content; 1.8 mg SC once weekly", "value": 14.7, "unit": "%"}, {"measurement": "relative reduction in liver fat (MRI-PDFF)", "setting": "liver fat content; 1.8 mg once weekly", "value": 68.5, "unit": "%"}, {"measurement": "proportion of patients with at least 30% reduction in liver fat content", "setting": "liver fat content; 1.8 mg", "value": "94.4 % of patients"}, {"measurement": "proportion of patients with at least 50% reduction in liver fat content", "setting": "liver fat content; 1.8 mg", "value": "72.2 % of patients"}, {"measurement": "proportion of patients with normalization in liver fat content (equal or below 5%)", "setting": "liver fat content; 1.8 mg", "value": 55.6, "unit": "% patients"}, {"measurement": "absolute reduction in liver fat (MRI-PDFF)", "setting": "liver fat content; 2.4 mg SC once weekly (4-week titration)", "value": 11.3, "unit": "%"}, {"measurement": "relative reduction in liver fat (MRI-PDFF)", "setting": "liver fat content; 2.4 mg once weekly", "value": 57.1, "unit": "%"}, {"measurement": "proportion of patients with at least 30% reduction in liver fat content", "setting": "liver fat content; 2.4 mg", "value": "85 % of patients"}, {"measurement": "proportion of patients with at least 50% reduction in liver fat content", "setting": "liver fat content; 2.4 mg", "value": 70, "unit": "%"}, {"measurement": "proportion of patients with normalization in liver fat content (equal or below 5%)", "setting": "liver fat content; 2.4 mg", "value": 50.0, "unit": "%"}, {"measurement": "relative reductions in liver fat (study conclusion)", "setting": "liver fat content; 12 weeks", "value": "> 60", "unit": "%"}, {"measurement": "ALT levels", "setting": "[1]", "value": "robust reduction of ALT levels"}, {"measurement": "cT1 response (80 ms reduction vs baseline)", "setting": "[1]", "value": "high rates of cT1 response"}, {"measurement": "serious and severe AE observed", "setting": "[2]; 1.2 mg", "value": "Salmonella infection"}, {"measurement": "serious and severe AE observed", "setting": "[2]; 1.8 mg", "value": "hypertension >3 weeks post last dose of study medication"}, {"measurement": "number of adverse events leading to treatment discontinuation", "setting": "[2]; 24 weeks", "value": "low across the treatment group"}, {"measurement": "overall safety and tolerability", "setting": "[2]; 24 weeks", "value": "safe and tolerable"}, {"measurement": "severity of gastrointestinal-related adverse events (nausea, vomiting, diarrhea, constipation)", "setting": "[2]; 24 weeks", "value": "mild to moderate"}, {"measurement": "significant ALT elevations", "setting": "[2]; 24 weeks", "value": "No significant ALT elevations were reported"}, {"measurement": "number of serious or severe adverse events", "setting": "[2]; treatment groups, 24 weeks", "value": "low and comparable to the placebo group"}]}]}
